Broadly, the IC50 is the concentration that inhibits the measured activity by half.

Structures are written as SMILES. Starred links: 1 amine or outer side, 2 acyl side, 3 side chain; linkers in the order of their positions; H or OH if unused. Positions of bridges follow the written chain, without caps; N, C: chain ends. Non-standard residues stand in square brackets, D forms with d. Residues, ends and D or L forms follow the SMILES beside them. *: point of attachment. hPhe(3-Cl-4-CF3) = N[C@@H](CCc1ccc(C(F)(F)F)c(Cl)c1)C(=O)O; NMePhe(4-CF3) = CN[C@@H](Cc1ccc(C(F)(F)F)cc1)C(=O)O; hPhe(4-CF3) = N[C@@H](CCc1ccc(C(F)(F)F)cc1)C(=O)O; NMePhe(4-Me) = CN[C@@H](Cc1ccc(C)cc1)C(=O)O; NMedβ3hAla = C[C@H](CC(=O)[*:2])N(C)[*:1]; NMeNva(5,5-F2) = CN[C@@H](CCC(F)F)C(=O)O; NMeGly(cPent) = CN[C@H](C(=O)O)C1CCCC1; Phe(3-I) = N[C@@H](Cc1cccc(I)c1)C(=O)O; NMe3Pal = CN[C@@H](Cc1cccnc1)C(=O)O; NMeY = CN[C@@H](Cc1ccc(O)cc1)C(=O)O; NMeCha = CN[C@@H](CC1CCCCC1)C(=O)O; NMehLeu = CN[C@@H](CCC(C)C)C(=O)O; NMeChg = CN[C@H](C(=O)O)C1CCCCC1; NMeI = CC[C@H](C)[C@H](NC)C(=O)O; NMeβAla = CN(CCC(=O)[*:2])[*:1]; NMeD = CN[C@@H](CC(=O)O)C(=O)O; NMeL = CN[C@@H](CC(C)C)C(=O)O; Cba = N[C@@H](CC1CCC1)C(=O)O; NMeV = CN[C@H](C(=O)O)C(C)C; d(β3hA) = C[C@@H](N)CC(=O)O; NMeS = CN[C@@H](CO)C(=O)O; NMeA = CN[C@@H](C)C(=O)O; NMeAib = CNC(C)(C)C(=O)O; Piperidide = C1CCN(*)CC1; Pra = C#CC[C@H](N)C(=O)O; Pyrrolidide = C1CCN(*)C1; dNMeA = CN[C@H](C)C(=O)O; Ac5c = NC1(C(=O)O)CCCC1; Aze = O=C(O)[C@@H]1CCN1; CH2CMe2OH = CC(C)(O)C*; Aib = CC(C)(N)C(=O)O; Isopentyl = CC(C)CC*; NEtG = CCNCC(=O)O; Sar = CNCC(=O)O

T1 sequence (P01116 1-188 isoform P01116-2 G12D): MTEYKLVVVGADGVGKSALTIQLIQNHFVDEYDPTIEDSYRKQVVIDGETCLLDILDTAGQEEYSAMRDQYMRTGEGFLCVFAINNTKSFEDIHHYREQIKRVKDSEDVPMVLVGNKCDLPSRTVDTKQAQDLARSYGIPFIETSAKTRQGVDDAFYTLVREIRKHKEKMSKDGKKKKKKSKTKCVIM

This experiment has as its target T1, Kras and SOS1 (biotin-tagged human Kras loaded with GDP, His-tagged human SOS1) (Homo sapiens, UniProt P01116, G12D).
T1 construct: made in house; host or cells: E. coli (stated for Kras only)
As to the kind of experiment: Protein-protein interaction inhibition between Kras and SOS1 (KrasGl2D-SOS PPI) using AlphaScreen. The following applies: AlphaScreen; biotin-tagged human Kras loaded with GDP, His-tagged human SOS1; read-out: KRAS G12D-SOS PPI IC50. It is filed as binding. Put shortly:
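Binding between SOS1 and Kras is detected as bead-proximity luminescence: illuminate Ni-conjugated donors (680 nm), collect 520-620 nm emission from streptavidin-conjugated acceptors; Kras carries biotin and GDP loaded after purification, SOS1 carries a His tag.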
For orientation: In Alpha technology, singlet oxygen from a donor bead excites a nearby acceptor bead.
Consider `C#CC[C@@H]1NC(=O)[C@H](Cc2cccc(I)c2)NC(=O)CN(C)C(=O)[C@H](Cc2ccc(OC)cc2)N(C)C(=O)CN(C)C(=O)CN(C)C(=O)[C@H]([C@@H](C)CC)NC(=O)[C@H](CC(C)C)N(C)C(=O)C[C@@H](C(=O)N2CCCCC2)N(C)C(=O)[C@H](CC(C)C)NC(=O)C(C)(C)N(C)C1=O` [Compound 1169] ([NMeL]I[Sar][Sar][NMeY](Me)[Sar][Phe(3-I)][Pra][NMeAib]L[NMeD]-Piperidide; lactam N-11), for which the IC50 stood at 53 nM.

For `CC(C)C[C@H]1C(=O)N[C@@H](CC2CCC2)C(=O)N(C)CC(=O)N(C)CC(=O)N(C)[C@@H](CC2CCCCC2)C(=O)N(C)CC(=O)N[C@@H](CCc2ccc(C(F)(F)F)c(Cl)c2)C(=O)N2CCC[C@H]2C(=O)NC2(CCCC2)C(=O)N(C)[C@@H](C(C)C)C(=O)N[C@H](C)CC(=O)N1C` [Compound 290] (cyclo([Ac5c][NMeV][d(β3hA)][NMeL][Cba][Sar][Sar][NMeCha][Sar][hPhe(3-Cl-4-CF3)]P)), the IC50 worked out at 160 nM.

As to `CC[C@H](C)[C@@H]1NC(=O)[C@H](CC(C)C)N(C)C(=O)C[C@@H](C(=O)N(C)C)N(C)C(=O)[C@H]([C@@H](C)CC)N(C)C(=O)C2(CCCC2)NC(=O)[C@H](CCC(F)F)N(C)C(=O)[C@H](CCc2ccc(C(F)(F)F)c(Cl)c2)NC(=O)CN(C)C(=O)[C@H](Cc2ccc(C)cc2)N(C)C(=O)[C@@H]2CCN2C(=O)[C@H](C)N(C)C1=O` [Compound 1898] ([NMeL]I[NMeA][Aze][NMePhe(4-Me)][Sar][hPhe(3-Cl-4-CF3)][NMeNva(5,5-F2)][Ac5c][NMeI][NMeD]-NMe2; lactam N-11), the 50% inhibitory concentration (IC50) stood at 0.93 nM.

Turning to `CC[C@H](C)[C@@H]1NC(=O)[C@H](C)N(C)C(=O)C[C@@H](C)NC(=O)[C@H](C(C)C)N(C)C(=O)C2(CCCC2)NC(=O)[C@@H]2CCCN2C(=O)[C@H](CCc2ccc(C(F)(F)F)c(Cl)c2)NC(=O)[C@@H](C)N(C)C(=O)[C@H](CC2CCCCC2)N(C)C(=O)CN(C)C(=O)CN(C)C1=O` [Compound 773] (cyclo([Ac5c][NMeV][d(β3hA)][NMeA]I[Sar][Sar][NMeCha][dNMeA][hPhe(3-Cl-4-CF3)]P)), the IC50 is 140 nM.

As to `CC[C@H](C)[C@@H]1NC(=O)[C@H](CC(C)C)N(C)C(=O)C[C@@H](C(=O)N2CCCCC2)N(C)C(=O)[C@H](C2CCCCC2)N(C)C(=O)C2(CCCC2)NC(=O)[C@H](Cc2cccnc2)N(C)C(=O)[C@H](CCc2ccc(C(F)(F)F)c(Cl)c2)NC(=O)CN(C)C(=O)[C@H](CC2CCCCC2)N(C)C(=O)CN(C)C(=O)CN(C)C1=O` [Compound 63] ([NMeL]I[Sar][Sar][NMeCha][Sar][hPhe(3-Cl-4-CF3)][NMe3Pal][Ac5c][NMeChg][NMeD]-Piperidide; lactam N-11), the IC50 worked out at 3.7 nM.

As to `CC[C@H](C)[C@@H]1NC(=O)CCN(C)C(=O)CN(C)C(=O)[C@H](C2CCCC2)N(C)C(=O)C2(CCCC2)NC(=O)[C@@H]2CCCN2C(=O)[C@H](CCc2ccc(C(F)(F)F)c(Cl)c2)NC(=O)CN(C)C(=O)[C@H](CC2CCCCC2)N(C)C(=O)CN(C)C(=O)CN(C)C1=O` [Compound 369] (cyclo([Ac5c][NMeGly(cPent)][Sar][NMeβAla]I[Sar][Sar][NMeCha][Sar][hPhe(3-Cl-4-CF3)]P)), the IC50 came out at 350 nM.

Regarding `CC[C@H](C)[C@@H]1NC(=O)[C@H](CC(C)C)N(C)C(=O)C[C@@H](C)N(C)C(=O)[C@H](CC(C)C)NC(=O)C(C)(C)N(C)C(=O)[C@H](CC(C)C)NC(=O)[C@H](CCc2ccc(C(F)(F)F)c(Cl)c2)NC(=O)CN(C)C(=O)[C@H](Cc2ccc(C(F)(F)F)cc2)N(C)C(=O)[C@@H]2CCN2C(=O)[C@H](C)N(C)C1=O` [Compound 1401] (cyclo([Aze][NMePhe(4-CF3)][Sar][hPhe(3-Cl-4-CF3)]L[NMeAib]L[NMedβ3hAla][NMeL]I[NMeA])), the IC50 came to 120 nM.

With `CC[C@H](C)[C@@H]1NC(=O)[C@H](CCC(C)C)N(C)C(=O)C[C@@H](C(=O)N2CCCC2)N(C)C(=O)[C@H]([C@@H](C)CC)N(C)C(=O)C2(CCCC2)NC(=O)[C@@H]2CCCN2C(=O)[C@H](CCc2ccc(C(F)(F)F)c(Cl)c2)NC(=O)CN(C)C(=O)[C@H](Cc2ccc(C(F)(F)F)cc2)N(C)C(=O)[C@@H]2CCN2C(=O)[C@H](C)N(C)C1=O` [Compound 1289] ([NMehLeu]I[NMeA][Aze][NMePhe(4-CF3)][Sar][hPhe(3-Cl-4-CF3)]P[Ac5c][NMeI][NMeD]-Pyrrolidide; lactam N-11), the IC50 came out at 0.67 nM.

Take `CC[C@H](C)[C@@H]1NC(=O)[C@H](CC(C)C)N(C)C(=O)C[C@@H](C(=O)N2CCCCC2)N(C)C(=O)[C@H](CC(C)C)N(C)C(=O)C(C)(C)NC(=O)[C@H](COCC(C)(C)O)N(C)C(=O)[C@H](CCc2ccc(C(F)(F)F)cc2)NC(=O)CN(C)C(=O)[C@H](COCCC(C)C)N(C)C(=O)CN(C)C(=O)CN(CC)C1=O` [Compound 1528] ([NMeL]I[NEtG][Sar][NMeS](Isopentyl)[Sar][hPhe(4-CF3)][NMeS](CH2CMe2OH)[Aib][NMeL][NMeD]-Piperidide; lactam N-11): the IC50 was determined as 41 nM.

Source of the values: US12371454B2, “Cyclic peptide compound having Kras inhibitory action” (priority 2019, dated 2025).
